Assay results from ChEMBL document CHEMBL1158595, “2' biaryl amides as novel and subtype selective M1 agonists. Part II: Further optimization and profiling” (Bioorg Med Chem Lett, 2010).

How the values were obtained:
[1] = target: T1, Muscarinic acetylcholine receptor M1 (Homo sapiens, UniProt P11229); assay: Agonist activity at human muscarinic M1 receptor expressed in CHO cells assessed as effect on acetylcholine-induced intracellular calcium level by FLIPR assay; type: functional, cell-based
T1 sequence (P11229 whole entry): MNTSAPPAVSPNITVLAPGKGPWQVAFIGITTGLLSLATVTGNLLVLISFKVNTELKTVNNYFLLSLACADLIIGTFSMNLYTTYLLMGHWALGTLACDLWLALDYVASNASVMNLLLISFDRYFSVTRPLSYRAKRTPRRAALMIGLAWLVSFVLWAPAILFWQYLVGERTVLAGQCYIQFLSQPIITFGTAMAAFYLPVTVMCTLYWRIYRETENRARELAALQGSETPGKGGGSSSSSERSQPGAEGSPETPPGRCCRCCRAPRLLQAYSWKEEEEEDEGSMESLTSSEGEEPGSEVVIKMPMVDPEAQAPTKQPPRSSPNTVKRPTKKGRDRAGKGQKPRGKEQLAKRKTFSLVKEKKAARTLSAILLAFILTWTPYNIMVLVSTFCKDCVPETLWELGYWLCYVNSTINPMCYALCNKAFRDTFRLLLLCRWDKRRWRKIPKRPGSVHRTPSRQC

[2] = target: T2, Muscarinic acetylcholine receptor M1 (Homo sapiens) (UniProt P11229); assay: Intrinsic activity at human muscarinic M1 receptor expressed in CHO cells assessed as effect on acetylcholine-induced intracellular calcium level by FLIPR assay relative to acetylcholine; type: functional, cell-based
T2 sequence (whole entry): T1 sequence (P11229 whole entry)

[3] = target: Muscarinic acetylcholine receptor M3 (Homo sapiens, UniProt P20309); assay: Inhibition of human muscarinic M3 receptor expressed in CHO cells; type: cell-based
Muscarinic acetylcholine receptor M3, sequence (P20309 whole entry): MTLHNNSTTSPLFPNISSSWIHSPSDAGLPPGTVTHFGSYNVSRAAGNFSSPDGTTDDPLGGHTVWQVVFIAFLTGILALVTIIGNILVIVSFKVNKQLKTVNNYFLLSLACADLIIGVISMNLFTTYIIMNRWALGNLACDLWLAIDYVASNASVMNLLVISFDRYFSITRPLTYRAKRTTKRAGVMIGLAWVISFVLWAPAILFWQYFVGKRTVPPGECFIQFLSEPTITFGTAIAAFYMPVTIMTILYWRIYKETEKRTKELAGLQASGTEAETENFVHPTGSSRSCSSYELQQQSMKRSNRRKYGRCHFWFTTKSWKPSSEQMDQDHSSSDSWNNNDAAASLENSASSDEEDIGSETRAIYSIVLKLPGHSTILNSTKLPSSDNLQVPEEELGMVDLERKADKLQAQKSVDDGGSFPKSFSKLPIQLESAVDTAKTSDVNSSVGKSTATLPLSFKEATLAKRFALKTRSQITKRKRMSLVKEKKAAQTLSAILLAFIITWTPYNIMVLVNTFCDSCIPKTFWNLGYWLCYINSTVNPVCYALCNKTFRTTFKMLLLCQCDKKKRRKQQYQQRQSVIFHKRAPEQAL

In the case of `CN(C(=O)CC1CCNCC1)c1ccccc1-c1cccc(Cl)c1`, the EC50 [1] is reported as over 10000 nM.

`Cc1ccc(C(=O)NCC2CCNCC2)c(-c2cccc(Cl)c2)c1` showed an EC50 [1] of 158 nM and an Intrinsic activity [2] of 77%.

For `Fc1cccc(-c2cccc(Cl)c2)c1-c1noc(CC2CCNCC2)n1`, the EC50 [1] was over 10000 nM.

`CN(Cc1ccccc1-c1cccc(Cl)c1)C(=O)C1CCNCC1` was tested, and the EC50 [1] was over 10000 nM.

`Clc1cccc(-c2ccccc2/C=C/CC2CCNCC2)c1` showed an IC50 [3] of 12.6 nM, an EC50 [1] of 1000 nM and an Intrinsic activity [2] of 55%.

With `Clc1cccc(-c2ccccc2OCCC2CCNCC2)c1` the EC50 [1] was over 10000 nM.

With `O=S(=O)(CCC1CCNCC1)c1ccccc1-c1cccc(Cl)c1` the IC50 [3] was 20 nM, the EC50 [1] was 63.1 nM and the Intrinsic activity [2] was 71%.

`O=C(CC1CCNCC1)Nc1ccccc1-c1cccc(Cl)c1` showed an EC50 [1] of 7940 nM and an Intrinsic activity [2] of 43%.

`O=C(NCC1CCNCC1)c1ccncc1-c1cccc(Cl)c1` showed an EC50 [1] of over 10000 nM and an Intrinsic activity [2] of 3%.

Work on `O=C(NCC1CCNCC1)c1c(Cl)cccc1-c1cccc(Cl)c1` yielded an EC50 [1] of 63.1 nM and an Intrinsic activity [2] of 109%.

Work on `O=C(NCC1=C(F)CNCC1)c1c(-c2cccc(Cl)c2)ccc(Cl)c1F` yielded an IC50 [3] of 10000 nM, an EC50 [1] of 158 nM and an Intrinsic activity [2] of 74%.

`OC(CCC1CCNCC1)c1ccccc1-c1cccc(Cl)c1` (configuration not stated) showed an IC50 [3] of 2 nM, an EC50 [1] of 1 nM and an Intrinsic activity [2] of 100%.

Work on `O=C(NCC1CCNCC1)c1cc(F)ccc1-c1cccc(Cl)c1` yielded an EC50 [1] of 50.1 nM and an Intrinsic activity [2] of 78%.

`O=C(NCC1CCNCC1)c1c(F)cccc1-c1cc(Cl)ccc1Cl` was tested, and the IC50 [3] was 1260 nM, the EC50 [1] was 31.6 nM and the Intrinsic activity [2] was 92%.

For `C[C@H]1CNCC[C@H]1CNC(=O)c1c(F)cccc1-c1cccc(Cl)c1` (relative stereo), the IC50 [3] was 2510 nM, the EC50 [1] was 20 nM and the Intrinsic activity [2] was 92%.

`O=C(NCCC1CCNCC1)c1ccccc1-c1cccc(Cl)c1` showed an EC50 [1] of 3160 nM and an Intrinsic activity [2] of 52%.

`O=C(NCC1CCNCC1)c1c(F)cccc1-c1cccc(Cl)c1` was tested, and the EC50 [1] was 15.8 nM and the Intrinsic activity [2] was 90%.

Work on `Cn1cc(-c2cccc(Cl)c2)c(C(=O)NCC2CCNCC2)n1` yielded an EC50 [1] of over 10000 nM and an Intrinsic activity [2] of 0%.

Work on `O=C(NCC1CCNCC1)c1ccc(Cl)cc1-c1cccc(Cl)c1` yielded an EC50 [1] of 100 nM and an Intrinsic activity [2] of 79%.

Molecule `CC(=O)N(Cc1ccccc1-c1cccc(Cl)c1)CC1CCNCC1` has an EC50 [1] of 398 nM and an Intrinsic activity [2] of 70%.

Work on `O=C(Cc1ccccc1-c1cccc(Cl)c1)NC1CCNCC1` yielded an IC50 [3] of 126 nM, an EC50 [1] of 158 nM and an Intrinsic activity [2] of 74%.

`Cc1cccc(-c2cccc(Cl)c2)c1C(=O)NCC1CCNCC1` showed an EC50 [1] of over 10000 nM and an Intrinsic activity [2] of 37%.

For `O=S(=O)(NCC1CCNCC1)c1ccccc1-c1cccc(Cl)c1`, the EC50 [1] was over 10000 nM.

`O=C(NCc1ccccc1-c1cccc(Cl)c1)C1CCNCC1` showed an IC50 [3] of 2000 nM, an EC50 [1] of 501 nM and an Intrinsic activity [2] of 81%.

Molecule `O=C(OCC1CCNCC1)c1ccccc1-c1cccc(Cl)c1` has an EC50 [1] of over 10000 nM.

Molecule `Fc1cccc(-c2cccc(Cl)c2)c1-c1noc(C2CCNCC2)n1` has an EC50 [1] of over 10000 nM.

For `O=C(NCC1CCNCC1)c1cc(Cl)ccc1-c1cccc(Cl)c1`, the EC50 [1] was 100 nM and the Intrinsic activity [2] was 74%.

With `O=C(NCC1CCNCC1)c1cccc(Cl)c1-c1cccc(Cl)c1` the EC50 [1] was over 10000 nM and the Intrinsic activity [2] was 14%.

Molecule `O=C(NCC1CCNCC1)c1ccc(F)cc1-c1cccc(Cl)c1` has an EC50 [1] of over 10000 nM and an Intrinsic activity [2] of 24%.

`CN(CC1CCNCC1)S(=O)(=O)c1ccccc1-c1cccc(Cl)c1` showed an EC50 [1] of over 10000 nM.

In the case of `O=C(NCC1CCNCC1)c1sccc1-c1cccc(Cl)c1`, the EC50 [1] is reported as over 10000 nM and the Intrinsic activity [2] is reported as 0%.

Molecule `O=C(NCC1CCNCC1)c1ncccc1-c1cccc(Cl)c1` has an EC50 [1] of over 10000 nM and an Intrinsic activity [2] of 18%.

In the case of `O=C(NC[C@H]1CCNC[C@H]1F)c1c(F)cccc1-c1cccc(Cl)c1`, the IC50 [3] is reported as 10000 nM, the EC50 [1] is reported as 158 nM and the Intrinsic activity [2] is reported as 68%.

`O=C(NCC1(F)CCNCC1)c1c(F)cccc1-c1cccc(Cl)c1` was tested, and the IC50 [3] was 1260 nM, the EC50 [1] was 63.1 nM and the Intrinsic activity [2] was 87%.

For `O=C(NCC1CCNCC1)c1cnccc1-c1cccc(Cl)c1`, the EC50 [1] was over 10000 nM and the Intrinsic activity [2] was 20%.

`Clc1cccc(-c2ccccc2COCC2CCNCC2)c1` showed an EC50 [1] of over 10000 nM.

With `O=C(CCC1CCNCC1)c1ccccc1-c1cccc(Cl)c1` the EC50 [1] was over 10000 nM.

`Fc1cccc(-c2cc(Cl)ccc2Cl)c1-c1nc(C2CCNCC2)no1` was tested, and the IC50 [3] was 3980 nM, the EC50 [1] was 501 nM and the Intrinsic activity [2] was 65%.

With `CC1CNCC=C1CNC(=O)c1c(-c2cccc(Cl)c2)ccc(Cl)c1F` (configuration not stated) the EC50 [1] was 158 nM and the Intrinsic activity [2] was 72%.

`CN(C(=O)Cc1ccccc1-c1cccc(Cl)c1)C1CCNCC1` showed an EC50 [1] of 50.1 nM and an Intrinsic activity [2] of 7.8%.

`Cc1cccc(C(=O)NCC2CCNCC2)c1-c1cccc(Cl)c1` showed an EC50 [1] of over 10000 nM and an Intrinsic activity [2] of 34%.

`O=C(NCC1CCNCC1)c1cccnc1-c1cccc(Cl)c1` was tested, and the EC50 [1] was over 10000 nM and the Intrinsic activity [2] was 0%.

`O=C(NCC1CCNCC1)c1cccc(F)c1-c1cccc(Cl)c1` showed an EC50 [1] of 5010 nM and an Intrinsic activity [2] of 45%.

For `O=C(NCC1CCNCC1)c1c(-c2cccc(Cl)c2)ccc(Cl)c1F`, the EC50 [1] was 25.1 nM and the Intrinsic activity [2] was 80%.

For `Clc1cccc(-c2ccccc2CNCC2CCNCC2)c1`, the EC50 [1] was over 10000 nM.

With `Cc1ccc(-c2cccc(Cl)c2)c(C(=O)NCC2CCNCC2)c1` the EC50 [1] was 1000 nM and the Intrinsic activity [2] was 67%.

With `CC[C@H]1CNCC[C@@H]1CNC(=O)c1c(F)cccc1-c1cccc(Cl)c1` the IC50 [3] was 10000 nM, the EC50 [1] was 39.8 nM and the Intrinsic activity [2] was 92%.

For `CS(=O)(=O)N(Cc1c(F)cccc1-c1cccc(Cl)c1)CC1CCNCC1`, the EC50 [1] was 1580 nM and the Intrinsic activity [2] was 51%.
